“Also recorded” adds a separate entry of the source.
Target: T1, hypothalamic CPT1 (Rattus norvegicus, UniProt P32198)
T1 sequence (P32198 1-773): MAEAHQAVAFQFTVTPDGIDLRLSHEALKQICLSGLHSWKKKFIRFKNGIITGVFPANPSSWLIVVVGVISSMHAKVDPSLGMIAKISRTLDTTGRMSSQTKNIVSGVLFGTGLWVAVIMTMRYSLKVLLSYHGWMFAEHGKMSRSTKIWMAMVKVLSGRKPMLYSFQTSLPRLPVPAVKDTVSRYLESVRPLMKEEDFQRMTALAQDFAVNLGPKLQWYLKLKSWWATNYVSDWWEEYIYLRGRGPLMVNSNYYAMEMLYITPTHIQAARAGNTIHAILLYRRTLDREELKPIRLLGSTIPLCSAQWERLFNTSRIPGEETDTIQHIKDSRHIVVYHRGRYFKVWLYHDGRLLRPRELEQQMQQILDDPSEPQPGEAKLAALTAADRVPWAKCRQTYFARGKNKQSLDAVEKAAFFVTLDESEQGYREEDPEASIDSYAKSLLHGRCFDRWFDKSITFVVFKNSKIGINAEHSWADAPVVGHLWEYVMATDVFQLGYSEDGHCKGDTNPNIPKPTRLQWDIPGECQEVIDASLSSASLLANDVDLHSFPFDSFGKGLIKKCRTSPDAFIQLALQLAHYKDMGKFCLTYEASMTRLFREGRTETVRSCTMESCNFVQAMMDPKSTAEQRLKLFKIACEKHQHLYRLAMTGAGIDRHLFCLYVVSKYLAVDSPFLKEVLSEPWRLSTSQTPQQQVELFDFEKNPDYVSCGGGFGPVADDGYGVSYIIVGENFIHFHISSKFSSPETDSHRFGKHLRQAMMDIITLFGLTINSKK
Experiment: Food intake after ICV bolus of CPT1 antagonists
Format: in vivo
Parameters: CPT1 activity was measured in the particulate fraction of protein extracts from animals treated with ICV control injections; from tissue; host or cells: hypothalamus (arcuate nucleus) of male Sprague-Dawley rats, in vivo or ex vivo
Conditions: for decrease in daily food intake: 24-48 h after single ICV administration, ST 1326 high dose; for change in food intake from baseline: ST 1326 high dose (25 pmoles); for effect on food intake / feeding behavior: single ICV injection
Protocol: Hypothalamic inhibition of CPT1 decreases food intake. First we examined whether central administration of molecular and pharmacological antagonists of CPT1 modulates feeding behavior in conscious rats (FIG. 3). […] Food intake was monitored in metabolic cages before and up to 72 h after the ICV injections (Obici et al., 2002a). […] The marked effect of ICV CPT1L-Ribo on food intake was significant when compared with either control vector or with an unrelated control ribozyme (FIG. 3c). […] The anorectic effect of central CPT1 inhibition lasted for at least 48 h following a single ICV administration. These decreases in food intake were significant compared with both baseline and vehicle/control (FIG. 3a-e). The changes from baseline induced by CPT1 inhibition were statistically significant at 24 h (−17.6±2.0 g and −12.4±3.9 g), and 48 h (−13.4±1.8 g and −7.8±3.8 g) following ICV administration of CP1L-Ribo and high dose ST 1326, respectively (FIGS. 3b and e). This represented a ˜50% decrease in daily food intake, which returned toward baseline values by 72 h.
Animal preparation for in vivo experiments. We studied ninety-three 10-week old male Sprague-Dawley rats (Charles River Breeding Laboratories, Wilmington, Mass.). Rats were housed in individual cages and subjected to a standard light-dark cycle. Three weeks prior to the in vivo studies, we placed a chronic catheter in the third cerebral ventricle by stereotaxic surgery (Obici et al., 2002a; Obici et al., 2001; Liu et al., 1998). One week before the pancreatic-insulin clamp protocols, we placed additional catheters in the right internal jugular and left carotid artery (Obici et al., 2001; Liu et al., 1998). All ICV solutions were dissolved in artificial cerebral spinal fluid (aCSF). Food intake was monitored daily.
Effect of central inhibition of CPT1 and food intake. We examined the effects of ICV CPT1L-Ribo and ST 1326 on food intake. Three-hours before the start of the dark cycle, CPT1L-Ribo or vector control, ST 1326 or ST 1340 was injected as a bolus via indwelling catheters implanted in the third cerebral ventricle. In the feeding studies, rats received a single bolus injection of 25 pmoles of ST1340 or two different doses (5 and 25 pmoles) of ST1326. Rats were adapted to the metabolic cages and their daily food intake had been constant (changes <10%) for a minimum of three consecutive days preceding the ICV injections. Food intake was continuously monitored for the following 72 h.

[1] = 24 h after single ICV administration
[2] = 48 h after single ICV administration

Row | Compound | inhibition of daily food intake (5 pmoles single ICV injection) | food intake on day 3 compared to control group (25 pmoles (high dose) single ICV injection, day 3) | inhibition of daily food intake (25 pmoles single ICV injection) | decrease in daily food intake [%] | change in food intake from baseline [1] [g] | change in food intake from baseline [2] [g] | effect on food intake / feeding behavior | average food intake (first night following ICV administration) [gr./day]
1 | CCCCCCCCCCCCCCNC(=O)N[C@H](CC(=O)[O-])C[N+](C)(C)C [ST1326, (R)-N-(tetradecylcarbamoyl)-aminocarnitine] | statistically significant on day 1 and 2 | significantly lowered food intake | statistically significant on day 1 and 2 | ~50 | -12.4 ± 3.9 | -7.8 ± 3.8 | markedly inhibited food intake | –
2 | CPT1L-Ribo: plasmid (pTarget, CMV promoter) expressing a hammerhead ribozyme that specifically cleaves rat CPT1L mRNA, complexed to PEI for ICV injection (DNA CUGUACCAAAGAGCUGUAGAGUCCGUGAGGACGAAACGCCGCUCACAAUG) | – | – | – | ~50 | -17.6 ± 2.0 | -13.4 ± 1.8 | significantly suppressed from day 1 to day 3; also recorded: rapid onset of anorexia | 13.0±1.9
